One experiment deals with P-450cam mutant Y96A (Pseudomonas putida, UniProt P00183, Y97A). Nature of the experiment: biochemical. The experiment is classed as binding. The following applies: read-out: Vs DTT (percentage displacement of DTT bound to P-450); for percent displacement of bound DTT at 200 µM: Mutant Y96A, 200 μM DTT, 200 μM test compound, phosphate buffer.
The next experiment has as its target wild type P450cam (Pseudomonas putida, UniProt P00183). The experiment in a line: biochemical. The experiment is classed as binding. The note with it: read-out: Vs DTT (percentage displacement of DTT bound to P-450).
Setting [1] is: Wild type, 200 μM DTT, 200 μM test compound, phosphate buffer.

Structures are written as SMILES. Read-outs that look alike come from different tables or passages of the source.

Sequence of wild type P450cam (P00183 whole entry): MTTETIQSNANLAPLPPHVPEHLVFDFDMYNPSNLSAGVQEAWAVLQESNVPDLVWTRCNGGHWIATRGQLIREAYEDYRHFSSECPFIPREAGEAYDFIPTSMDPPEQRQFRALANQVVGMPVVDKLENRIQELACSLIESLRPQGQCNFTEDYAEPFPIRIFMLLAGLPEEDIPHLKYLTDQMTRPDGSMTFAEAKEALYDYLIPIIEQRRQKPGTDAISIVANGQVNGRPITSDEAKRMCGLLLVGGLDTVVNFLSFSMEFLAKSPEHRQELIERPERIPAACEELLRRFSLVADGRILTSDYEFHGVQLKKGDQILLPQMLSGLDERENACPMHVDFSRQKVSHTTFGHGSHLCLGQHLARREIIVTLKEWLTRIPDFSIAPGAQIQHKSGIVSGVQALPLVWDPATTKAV
Sequence of P-450cam mutant Y96A (P00183 2-415 Y97A): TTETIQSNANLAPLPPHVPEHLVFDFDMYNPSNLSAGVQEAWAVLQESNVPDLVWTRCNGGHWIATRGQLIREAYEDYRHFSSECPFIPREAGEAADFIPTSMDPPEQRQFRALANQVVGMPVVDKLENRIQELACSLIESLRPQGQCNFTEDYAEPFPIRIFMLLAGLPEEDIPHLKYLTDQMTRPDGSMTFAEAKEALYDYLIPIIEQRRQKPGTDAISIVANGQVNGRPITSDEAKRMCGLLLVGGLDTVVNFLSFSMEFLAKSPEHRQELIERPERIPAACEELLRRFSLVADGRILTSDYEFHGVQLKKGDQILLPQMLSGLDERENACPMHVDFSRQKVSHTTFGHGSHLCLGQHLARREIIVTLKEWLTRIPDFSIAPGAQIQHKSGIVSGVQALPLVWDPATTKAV

As for `CCc1cccc2ccccc12` [1-Ethylnaphthalene], the percent displacement of bound DTT at 200 µM on P-450cam mutant Y96A turned out to be 20%. Regarding `CC(=O)Oc1cccc2ccccc12` [1-Naphthylacetate], the inhibition at 200 µM at wild type P450cam (setting [1]) was 5%. The percent displacement of bound DTT at 200 µM at P-450cam mutant Y96A is 5%. Regarding `CCCC(=O)Oc1cccc2ccccc12` [1-Naphthylbutyrate], the inhibition at 200 µM on wild type P450cam (setting [1]) worked out at 5%. For the same compound, the percent displacement of bound DTT at 200 µM at P-450cam mutant Y96A is 5%. Regarding `CCC(=O)Oc1cccc2ccccc12` [1-Naphthylpropionate], the inhibition at 200 µM at wild type P450cam (setting [1]) turned out to be 20%. Moreover, at P-450cam mutant Y96A, the percent displacement of bound DTT at 200 µM was 20%. For `CCc1ccc2ccccc2c1` [2-Ethylnaphthalene], the percent displacement of bound DTT at 200 µM at P-450cam mutant Y96A is 20%. Consider `O=Cc1ccc2c(c1)Cc1ccccc1-2` [2-Fluorencarboxzaldehyde], for which the percent displacement of bound DTT at 200 µM on P-450cam mutant Y96A was 50%. On to `CC(=O)Oc1ccc2ccccc2c1` [2-Naphthylacetate], for which, at wild type P450cam (setting [1]), the inhibition at 200 µM was 5%. In addition, the percent displacement of bound DTT at 200 µM on P-450cam mutant Y96A came to 5%. On to `O=C1c2ccccc2-c2ccccc21` [9-Fluorenone], for which, at wild type P450cam (setting [1]), the inhibition at 200 µM amounted to 20%. Further, the percent displacement of bound DTT at 200 µM at P-450cam mutant Y96A came out at 5%. Turning to `O=C1c2ccccc2Cc2ccccc21` [Anthrone], the inhibition at 200 µM on wild type P450cam (setting [1]) was found to be 5%. For the same compound, the percent displacement of bound DTT at 200 µM at P-450cam mutant Y96A worked out at 5%. For the compound `c1ccc(COCc2ccccc2)cc1` [Benzylether], the inhibition at 200 µM on wild type P450cam (setting [1]) amounted to 5%. For `c1ccc(CCc2ccccc2)cc1` [Bibenzyl], the percent displacement of bound DTT at 200 µM on P-450cam mutant Y96A was 55%. `c1ccc(-c2ccccc2)cc1` [Biphenyl]: the inhibition at 200 µM at wild type P450cam is 20%; at P-450cam mutant Y96A, 90%. Take `C1=CCCCC1` [Cyclohexene]: on wild type P450cam (setting [1]), the inhibition at 200 µM was 5%. Further, the percent displacement of bound DTT at 200 µM on P-450cam mutant Y96A is 40%.

With `O=C(c1ccccc1)C1CCCCC1` [Cyclohexylphenylketone], on wild type P450cam (setting [1]), the inhibition at 200 µM turned out to be 30%.

Take `CCc1ccccc1` [Ethylbenzene]: the percent displacement of bound DTT at 200 µM at P-450cam mutant Y96A came to 40%. In the case of `c1ccc2c(c1)Cc1ccccc1-2` [Fluorene], the percent displacement of bound DTT at 200 µM on P-450cam mutant Y96A came out at 50%.

As to `C=CC(=C)C` [Isoprene], on P-450cam mutant Y96A, the percent displacement of bound DTT at 200 µM was 10%. Regarding `c1ccc(CNc2ccccc2)cc1` [N-Phenylbenzylamine], the inhibition at 200 µM on wild type P450cam (setting [1]) was determined as 5%. For the compound `O=C(c1ccccc1)c1ccc2ccccc2c1` [Naphthylphenylketone], the inhibition at 200 µM at wild type P450cam (setting [1]) turned out to be 5%. Besides, on P-450cam mutant Y96A, the percent displacement of bound DTT at 200 µM amounted to 5%.

Consider `CCCCCCCC/C=C\CCCCCCCC(=O)O` [Oleic acid], for which the inhibition at 200 µM on wild type P450cam (setting [1]) is roughly 10%. Besides, at P-450cam mutant Y96A, the percent displacement of bound DTT at 200 µM is roughly 20%. For the compound `O=C(Oc1ccccc1)c1ccccc1` [Phenylbenzoate], the inhibition at 200 µM at wild type P450cam (setting [1]) was 5%. For `CCCCCCCCCCCCOS(=O)(=O)O` [SDS], at wild type P450cam (setting [1]), the inhibition at 200 µM amounted to 20%. The percent displacement of bound DTT at 200 µM at P-450cam mutant Y96A worked out at 60%. Turning to `CC(C)=CCC/C(C)=C/CC/C(C)=C/CC/C=C(\C)CC/C=C(\C)CCC=C(C)C` [Squalene], at P-450cam mutant Y96A, the percent displacement of bound DTT at 200 µM stood at 20%. Turning to `C=Cc1ccccc1` [Styrene], on P-450cam mutant Y96A, the percent displacement of bound DTT at 200 µM turned out to be 30%. Same read-out and setting: next, `Cc1ccccc1` [Toluene]: 30%.

Take `C(=C/c1ccccc1)/c1ccccc1` [cis-Stilbene]: on wild type P450cam (setting [1]), the inhibition at 200 µM turned out to be 20%. Also, the percent displacement of bound DTT at 200 µM on P-450cam mutant Y96A was determined as 50%. For `CCCCCCCCCCCC` [n-Dodecane], the percent displacement of bound DTT at 200 µM at P-450cam mutant Y96A was determined as 5%. With `CCCCCCCCCCC` [n-Undecane], the percent displacement of bound DTT at 200 µM at P-450cam mutant Y96A was 20%.
